Data published in ChEMBL document CHEMBL4706588, “Rational design and biological evaluation of a new class of thiazolopyridyl tetrahydroacridines as cholinesterase and GSK-3 dual inhibitors for Alzheimer's disease” (Eur J Med Chem, 2020).
Calls of active or inactive are those of the source. The rule behind the calls is not given here.

Columns and labels:
[1] = Effect on swimming speed in ICR mouse model of scopolamine-induced memory impairment at 15 mg/kg, po administered 30 mins prior to scopolamine injection by Morris water maze test; format: ADME, organism-based; conditions: in vivo, 0.5 h
BV-2 = assay: Inhibition of LPS-induced ROS production in mouse BV-2 cells at 5 uM incubated for 1 hr followed by LPS stimulation and measured after 24 hrs by DCFH-DA staining based inverted fluorescence microscopic analysis; format: functional, cell-based; conditions: time 25.0 hrs
[2] = target: Glycogen synthase kinase-3 beta (Mus musculus) (UniProt Q9WV60); assay: Inhibition of GSK3beta in mouse N2a cells overexpressing human tau protein assessed as phosphorylated tau Ser396 residue level at 15 uM incubated for 1 hr followed by okadaid-acid addition and measured after 5 hrs by Western blot analysis relative to control; format: cell-based; set-up: scale not given: the % may be the effect or the level left; conditions: time 6.0 hrs
[3] = target: Glycogen synthase kinase-3 beta (Mus musculus) (UniProt Q9WV60); assay: Inhibition of GSK3beta in mouse N2a cells overexpressing human tau protein assessed as reduction in tau Ser396 residue phosphorylation at 5 uM incubated for 1 hr followed by okadaid-acid addition and measured after 5 hrs by Western blot analysis relative to control; format: cell-based; conditions: time 6.0 hrs
[4] = target: T1, Dual specificity tyrosine-phosphorylation-regulated kinase 1A (Homo sapiens, UniProt Q13627); assay: Inhibition of DYRK1alpha (unknown origin)
[5] = target: T2, Dual specificity tyrosine-phosphorylation-regulated kinase 1B (Homo sapiens, UniProt Q9Y463); assay: Inhibition of DYRK1beta (unknown origin)
Target sequence in this assay (Q9Y463 whole entry): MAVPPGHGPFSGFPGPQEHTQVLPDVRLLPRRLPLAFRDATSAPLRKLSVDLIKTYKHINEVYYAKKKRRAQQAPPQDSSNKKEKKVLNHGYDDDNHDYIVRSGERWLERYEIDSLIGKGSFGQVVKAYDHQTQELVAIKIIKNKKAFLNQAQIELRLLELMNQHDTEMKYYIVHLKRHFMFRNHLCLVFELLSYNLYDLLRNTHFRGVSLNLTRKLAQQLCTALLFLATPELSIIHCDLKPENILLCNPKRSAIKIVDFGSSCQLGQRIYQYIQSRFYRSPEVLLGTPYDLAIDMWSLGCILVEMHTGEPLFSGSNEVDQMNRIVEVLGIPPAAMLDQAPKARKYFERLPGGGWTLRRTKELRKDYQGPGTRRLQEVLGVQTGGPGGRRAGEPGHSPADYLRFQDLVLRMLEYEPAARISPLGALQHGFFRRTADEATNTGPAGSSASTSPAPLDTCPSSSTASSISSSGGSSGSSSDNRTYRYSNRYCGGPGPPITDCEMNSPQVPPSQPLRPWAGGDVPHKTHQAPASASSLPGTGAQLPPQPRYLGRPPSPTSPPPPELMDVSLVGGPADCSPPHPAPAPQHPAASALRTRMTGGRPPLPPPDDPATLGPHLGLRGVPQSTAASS

[6] = target: Mitogen-activated protein kinase 3 (Homo sapiens) (UniProt P27361); assay: Inhibition of ERK1 (unknown origin) at 300 nM relative to control
[7] = target: Mitogen-activated protein kinase 1 (Homo sapiens) (UniProt P28482); assay: Inhibition of ERK2 (unknown origin) at 300 nM relative to control
[8] = target: Mitogen-activated protein kinase 14 (Homo sapiens) (UniProt Q16539); assay: Inhibition of P38alpha (unknown origin) at 300 nM relative to control
[9] = target: Glycogen synthase kinase-3 alpha (Homo sapiens) (UniProt P49840); assay: Inhibition of GSK-3alpha (unknown origin) at 300 nM relative to control
[10] = target: T3, Glycogen synthase kinase-3 beta (Homo sapiens, UniProt P49841); assay: Inhibition of GSK-3beta (unknown origin) at 300 nM relative to control
[11] = target: Mitogen-activated protein kinase 13 (Homo sapiens) (UniProt O15264); assay: Inhibition of P38delta (unknown origin) at 300 nM relative to control
[12] = target: Mitogen-activated protein kinase 12 (Homo sapiens) (UniProt P53778); assay: Inhibition of P38gamma (unknown origin) at 300 nM relative to control
[13] = target: T2, Dual specificity tyrosine-phosphorylation-regulated kinase 1B; assay: Inhibition of DYRK1beta (unknown origin) at 300 nM relative to control
Target sequence in this assay (Q9Y463 whole entry, looked up): as the sequence (Q9Y463 whole entry) above

[14] = target: T1, Dual specificity tyrosine-phosphorylation-regulated kinase 1A; assay: Inhibition of DYRK1alpha (unknown origin) at 300 nM relative to control
[15] = target: Mitogen-activated protein kinase 10 (Homo sapiens) (UniProt P53779); assay: Inhibition of JNK3 (unknown origin) at 300 nM relative to control
[16] = target: Mitogen-activated protein kinase 9 (Homo sapiens) (UniProt P45984); assay: Inhibition of JNK2 (unknown origin) at 300 nM relative to control
[17] = target: Cyclin-dependent kinase 2 (Homo sapiens) (UniProt P24941); assay: Inhibition of CDK2 (unknown origin) at 300 nM relative to control
[18] = target: Cyclin-dependent kinase 4 (Homo sapiens) (UniProt P11802); assay: Inhibition of CDK4 (unknown origin) at 300 nM relative to control
Cholinesterase = Cholinesterase (Homo sapiens, UniProt P06276); assay: Inhibition of human BuChE using butyrylthiocholine iodide as substrate preincubated with enzyme for 1 min followed by substrate addition and measured after 10 mins by Ellman's method
Acetylcholinesterase = Acetylcholinesterase (Homo sapiens, UniProt P22303); assay: Inhibition of human AChE using acetylthiocholine iodide as substrate preincubated with enzyme for 1 min followed by substrate addition and measured after 10 mins by Ellman's method
Mus musculus = assay: Cognitive enhancing effect in ICR mouse model of scopolamine-induced memory impairment assessed as improvement in trajectories to platform at 15 mg/kg, po administered 30 mins prior to scopolamine injection by Morris water maze test; format: functional, organism-based
Homo sapiens [19] = species on record: Homo sapiens; assay: Selectivity for GSK3 (unknown origin) over CDK9 (unknown origin)
Homo sapiens [20] = species on record: Homo sapiens; assay: Selectivity for GSK3 (unknown origin) over CDK7 (unknown origin)
Homo sapiens [21] = species on record: Homo sapiens; assay: Selectivity for GSK3 (unknown origin) over CDK6 (unknown origin)
Homo sapiens [22] = species on record: Homo sapiens; assay: Selectivity for GSK3 (unknown origin) over CDK4 (unknown origin)
Homo sapiens [23] = species on record: Homo sapiens; assay: Selectivity for GSK3 (unknown origin) over CDK2 (unknown origin)
Homo sapiens [24] = species on record: Homo sapiens; assay: Selectivity for GSK3 (unknown origin) over CDK1 (unknown origin)
Homo sapiens [25] = species on record: Homo sapiens; assay: Selectivity for GSK3 (unknown origin) over JNK3 (unknown origin)
Homo sapiens [26] = species on record: Homo sapiens; assay: Selectivity for GSK3 (unknown origin) over JNK2 (unknown origin)
Homo sapiens [27] = species on record: Homo sapiens; assay: Selectivity for GSK3 (unknown origin) over MAPK p38 delta (unknown origin)
Homo sapiens [28] = species on record: Homo sapiens; assay: Selectivity for GSK3 (unknown origin) over MAPK p38 gamma (unknown origin)
Homo sapiens [29] = species on record: Homo sapiens; assay: Selectivity for GSK3 (unknown origin) over MAPK p38 beta (unknown origin)
Homo sapiens [30] = species on record: Homo sapiens; assay: Selectivity for GSK3 (unknown origin) over MAPK p38 alpha (unknown origin)
Homo sapiens [31] = species on record: Homo sapiens; assay: Selectivity for GSK3 (unknown origin) over ERK2 (unknown origin)
Homo sapiens [32] = species on record: Homo sapiens; assay: Selectivity for GSK3 (unknown origin) over ERK1 (unknown origin)
[33] = target: Glycogen synthase kinase-3 beta (Mus musculus) (UniProt Q9WV60); assay: Inhibition of GSK3beta in mouse N2a cells overexpressing human tau protein assessed as phosphorylated tau Ser396 residue level at 10 uM incubated for 1 hr followed by okadaid-acid addition and measured after 5 hrs by Western blot analysis relative to control; format: cell-based; set-up: scale not given: the % may be the effect or the level left; conditions: time 6.0 hrs
N2a = assay: Effect on tau protein expression in mouse N2a cells transfected with human tau protein at 5 to 15 uM incubated for 1 hr followed by okadaid-acid addition and measured after 5 hrs by Western blot analysis; format: functional, cell-based; conditions: dose 5-15 µM, time 6.0 hrs
[34] = Effect on cell morphology in LPS-treated mouse BV-2 cells at 5 uM pretreated for 1 hr followed by incubation with LPS for 24 hrs by fluorescence microscopic analysis; format: ADME; conditions: bv-2, 25 h
in vitro = conditions: PAMPA
Description: Effective permeability of compound at 100 ug/ml incubated for 20 hrs by PAMPA-BBB assay

[35] = target: T3, Glycogen synthase kinase-3 beta; assay: biochemical
Description: Inhibition of recombinant human N-terminal His6-tagged GSK-3beta H350L mutant expressed in baculovirus infected Sf21 cells using GSM as substrate incubated for 30 mins in presence of ATP by kinase-glo luminescence assay

Sequence of Glycogen synthase kinase-3 beta (Mus musculus) (Q9WV60 whole entry, looked up): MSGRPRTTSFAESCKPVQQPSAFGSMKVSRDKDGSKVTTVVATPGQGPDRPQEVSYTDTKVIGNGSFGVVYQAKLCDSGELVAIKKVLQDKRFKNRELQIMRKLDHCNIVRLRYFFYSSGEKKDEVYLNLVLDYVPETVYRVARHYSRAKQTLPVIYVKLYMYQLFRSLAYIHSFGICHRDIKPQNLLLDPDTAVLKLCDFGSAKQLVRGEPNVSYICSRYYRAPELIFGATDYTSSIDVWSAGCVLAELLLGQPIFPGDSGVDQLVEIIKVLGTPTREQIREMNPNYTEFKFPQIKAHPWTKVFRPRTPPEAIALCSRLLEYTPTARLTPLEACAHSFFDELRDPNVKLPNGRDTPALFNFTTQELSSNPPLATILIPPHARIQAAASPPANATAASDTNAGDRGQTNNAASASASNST
Sequence of Mitogen-activated protein kinase 1 (Homo sapiens) (P28482 whole entry): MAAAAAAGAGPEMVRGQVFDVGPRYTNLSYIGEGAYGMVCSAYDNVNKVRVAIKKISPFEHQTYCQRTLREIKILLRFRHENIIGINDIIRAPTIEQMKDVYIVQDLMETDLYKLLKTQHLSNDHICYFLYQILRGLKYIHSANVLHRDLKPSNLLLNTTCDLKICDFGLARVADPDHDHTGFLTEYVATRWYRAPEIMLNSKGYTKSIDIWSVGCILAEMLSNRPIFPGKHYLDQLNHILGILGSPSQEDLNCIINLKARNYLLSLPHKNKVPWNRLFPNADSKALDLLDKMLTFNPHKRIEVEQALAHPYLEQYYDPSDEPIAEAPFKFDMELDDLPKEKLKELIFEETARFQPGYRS
Sequence of Mitogen-activated protein kinase 3 (Homo sapiens) (P27361 whole entry): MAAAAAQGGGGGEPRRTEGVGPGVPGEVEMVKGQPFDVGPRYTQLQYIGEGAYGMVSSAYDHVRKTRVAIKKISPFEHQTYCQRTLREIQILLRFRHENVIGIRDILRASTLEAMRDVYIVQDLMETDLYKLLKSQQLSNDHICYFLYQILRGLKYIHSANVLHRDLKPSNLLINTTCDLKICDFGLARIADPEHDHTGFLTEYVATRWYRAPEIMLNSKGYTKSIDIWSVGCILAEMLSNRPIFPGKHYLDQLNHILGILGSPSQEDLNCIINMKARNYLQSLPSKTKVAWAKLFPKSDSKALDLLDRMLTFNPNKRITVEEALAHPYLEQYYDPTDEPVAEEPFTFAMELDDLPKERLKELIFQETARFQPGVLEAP
Sequence of Mitogen-activated protein kinase 9 (Homo sapiens) (P45984 whole entry, looked up): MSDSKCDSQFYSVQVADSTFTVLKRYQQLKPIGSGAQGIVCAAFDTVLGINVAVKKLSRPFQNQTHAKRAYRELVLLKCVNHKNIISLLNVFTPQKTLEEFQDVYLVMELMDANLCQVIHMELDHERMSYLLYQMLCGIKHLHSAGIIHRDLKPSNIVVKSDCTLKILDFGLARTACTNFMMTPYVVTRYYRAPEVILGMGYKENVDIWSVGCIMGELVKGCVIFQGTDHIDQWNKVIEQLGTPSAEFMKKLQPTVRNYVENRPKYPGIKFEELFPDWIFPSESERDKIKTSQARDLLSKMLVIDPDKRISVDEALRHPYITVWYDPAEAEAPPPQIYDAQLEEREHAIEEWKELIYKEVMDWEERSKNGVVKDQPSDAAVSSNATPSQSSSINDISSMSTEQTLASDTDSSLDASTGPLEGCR
Sequence of Acetylcholinesterase (P22303 whole entry): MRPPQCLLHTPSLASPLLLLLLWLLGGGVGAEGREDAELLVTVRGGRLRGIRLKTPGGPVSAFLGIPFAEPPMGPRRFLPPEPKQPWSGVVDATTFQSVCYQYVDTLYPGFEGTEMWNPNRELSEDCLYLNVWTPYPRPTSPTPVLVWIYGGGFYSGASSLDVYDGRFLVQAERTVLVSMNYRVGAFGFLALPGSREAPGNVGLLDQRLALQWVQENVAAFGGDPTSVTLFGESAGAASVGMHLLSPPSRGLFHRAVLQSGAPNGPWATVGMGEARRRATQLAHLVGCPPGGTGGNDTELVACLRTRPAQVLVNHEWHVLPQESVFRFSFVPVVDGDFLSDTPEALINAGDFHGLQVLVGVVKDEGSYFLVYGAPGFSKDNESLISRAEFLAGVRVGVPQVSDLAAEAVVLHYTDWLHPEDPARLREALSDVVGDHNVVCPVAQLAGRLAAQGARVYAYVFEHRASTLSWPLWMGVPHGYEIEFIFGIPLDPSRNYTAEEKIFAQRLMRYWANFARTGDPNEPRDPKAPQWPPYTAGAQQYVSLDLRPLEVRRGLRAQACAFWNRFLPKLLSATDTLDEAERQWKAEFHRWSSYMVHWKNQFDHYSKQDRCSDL
Sequence of Mitogen-activated protein kinase 13 (Homo sapiens) (O15264 whole entry): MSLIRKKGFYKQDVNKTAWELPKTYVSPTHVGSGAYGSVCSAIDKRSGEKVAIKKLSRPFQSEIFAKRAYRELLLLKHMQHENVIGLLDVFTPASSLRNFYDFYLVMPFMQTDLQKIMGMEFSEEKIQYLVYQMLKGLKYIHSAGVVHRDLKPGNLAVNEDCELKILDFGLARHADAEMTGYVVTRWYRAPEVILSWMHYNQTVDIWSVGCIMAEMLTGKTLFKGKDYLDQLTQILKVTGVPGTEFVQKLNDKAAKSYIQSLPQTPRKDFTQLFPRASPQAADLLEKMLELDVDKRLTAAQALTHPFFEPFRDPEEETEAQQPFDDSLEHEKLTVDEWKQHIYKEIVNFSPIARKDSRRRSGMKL
Sequence of Mitogen-activated protein kinase 10 (Homo sapiens) (P53779 whole entry): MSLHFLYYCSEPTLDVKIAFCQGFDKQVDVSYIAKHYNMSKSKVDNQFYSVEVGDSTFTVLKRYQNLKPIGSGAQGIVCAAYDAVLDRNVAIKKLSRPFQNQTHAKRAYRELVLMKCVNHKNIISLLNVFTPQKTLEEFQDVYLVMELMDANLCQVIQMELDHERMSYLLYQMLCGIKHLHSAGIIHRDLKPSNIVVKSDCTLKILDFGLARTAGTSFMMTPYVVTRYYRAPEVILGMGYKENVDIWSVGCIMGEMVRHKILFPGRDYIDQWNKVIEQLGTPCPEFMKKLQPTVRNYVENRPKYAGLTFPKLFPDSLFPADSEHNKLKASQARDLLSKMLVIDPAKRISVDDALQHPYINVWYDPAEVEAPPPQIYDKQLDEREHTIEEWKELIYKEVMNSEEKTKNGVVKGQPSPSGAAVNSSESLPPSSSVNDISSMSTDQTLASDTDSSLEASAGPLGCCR
Sequence of Cyclin-dependent kinase 4 (Homo sapiens) (P11802 whole entry): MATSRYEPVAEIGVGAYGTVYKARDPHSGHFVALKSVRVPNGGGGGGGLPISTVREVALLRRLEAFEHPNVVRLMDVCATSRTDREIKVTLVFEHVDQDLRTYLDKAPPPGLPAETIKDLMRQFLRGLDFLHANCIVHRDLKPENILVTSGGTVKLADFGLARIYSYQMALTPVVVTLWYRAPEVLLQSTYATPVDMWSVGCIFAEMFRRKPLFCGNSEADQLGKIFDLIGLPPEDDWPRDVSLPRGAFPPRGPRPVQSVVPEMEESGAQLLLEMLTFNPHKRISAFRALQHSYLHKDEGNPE
Sequence of Mitogen-activated protein kinase 12 (Homo sapiens) (P53778 whole entry): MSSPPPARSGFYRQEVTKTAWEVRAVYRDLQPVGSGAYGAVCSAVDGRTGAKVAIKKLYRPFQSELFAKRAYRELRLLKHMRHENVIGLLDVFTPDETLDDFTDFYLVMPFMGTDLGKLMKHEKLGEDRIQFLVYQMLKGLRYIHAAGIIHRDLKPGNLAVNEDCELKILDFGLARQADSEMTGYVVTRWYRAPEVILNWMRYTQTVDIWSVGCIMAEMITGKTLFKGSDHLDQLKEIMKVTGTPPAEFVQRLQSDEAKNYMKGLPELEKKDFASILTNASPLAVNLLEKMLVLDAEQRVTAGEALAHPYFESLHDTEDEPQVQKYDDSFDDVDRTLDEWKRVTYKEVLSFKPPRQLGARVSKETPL

For `CNC(=O)c1sc(-c2ccnc(NC(=O)CNCCNc3c4c(nc5ccccc35)CCCC4)c2)nc1OCC1CC1`, the Activity [1] was “Non-Toxic”, the inhibition (BV-2) was “Active” and the Activity [2] was 17%. The inhibition [3] was 49%, the IC50 [4] was 28.3 nM and the IC50 [5] was 120 nM. It also gave an inhibition [6] of 13.1%, an inhibition [7] of 9.78% and an inhibition [8] of 5.21%. The inhibition [9] was 91.1%, the inhibition [10] was 86.3% and the inhibition [11] was 20.6%. It also gave an inhibition [12] of 7.64%, an inhibition [13] of 67.9% and an inhibition [14] of 83.7%. For the same molecule, the inhibition [15] was 16.7%, the inhibition [16] was 29.8% and the inhibition [17] was 3.8%. For the same molecule, the inhibition [18] was 3.07%, the IC50 (Cholinesterase) was 150 nM and the IC50 (Acetylcholinesterase) was 1.2 nM. The Activity (Mus musculus) was “Active”, the Selectivity ratio (Homo sapiens [19]) was 100 and the Selectivity ratio (Homo sapiens [20]) was 100. It also gave a Selectivity ratio (Homo sapiens [21]) of 100, a Selectivity ratio (Homo sapiens [22]) of 100 and a Selectivity ratio (Homo sapiens [23]) of 100. The Selectivity ratio (Homo sapiens [24]) was 100, the Selectivity ratio (Homo sapiens [25]) was 100 and the Selectivity ratio (Homo sapiens [26]) was 100. For the same molecule, the Selectivity ratio (Homo sapiens [27]) was 100, the Selectivity ratio (Homo sapiens [28]) was 100 and the Selectivity ratio (Homo sapiens [29]) was 100. The Selectivity ratio (Homo sapiens [30]) was 100, the Selectivity ratio (Homo sapiens [31]) was 100 and the Selectivity ratio (Homo sapiens [32]) was 100. The Activity [33] was 25.8%, the Activity (N2a) was “inactive” and the Activity [34] was “Non-Toxic”. For the same molecule, the Papp at 20 h, 100 ug/ml (in vitro) was 6.9 ×10⁻⁶ cm/s and the IC50 [35] was 22 nM.
